Ends that are not written are not given here.
Legend:
E. coli [1] = assay: Synergy study (checkerboard titration) with hen white lysozyme; assay type: cell-based
Procedure: (§1) The biological activity of the peptides can be determined by standard methods known to those of skill in the art, such as Aminimal inhibitory concentration (MIC)≅ assay described in the present examples, whereby the lowest concentration at which no change in OD is observed for a given period of time is recorded as MIC. Alternatively, Afractional inhibitory concentration (FIC)≅ is also useful for determination of synergy between the peptides of the invention, or the peptides in combination with known antibiotics. FICs are performed by checkerboard titrations of peptides in one dimension of a microtiter plate, and of antibiotics in the other dimension, for example. The FIC is calculated by looking at the impact of one antibiotic on the MIC of the other and vice versa. […] Preferably, an FIC of less than 0.5 is obtained for synergism. As used herein, FIC can be determined as follows: [formula]

P. aeruginosa (H103) = assay: as above; assay type: cell-based
Procedure: as §1

Salmonella typhi = assay: as above; assay type: cell-based
Procedure: as §1

[2] = tested on: Pseudomonas aeruginosa strain M2; assay: Protection of neutropenic CD-1 mice challenged with Pseudomonas aeruginosa; assay type: in vivo; design: Survival post bacterial challenge, surviving mice: reference not given here; conditions: for Survival (%) post bacterial challenge: PBS 8
Method in brief: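 Neutropenia induced by three i.p. cyclophosphamide doses ([…], alternate days); mice then infected i.p. with 200-300 organisms/mouse. Peptides (200 µg/mouse = 8 mg/kg) in buffered citrate given i.p. at 30 min (single) or 30 min and 16 hrs (double) post-challenge; PBS control; mean of 2 experiments.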

[3] = tested on: mutant (Nal B, H744) of P. aeruginosa; assay: microbe, parasite or virus in culture; assay type: cell-based
Procedure: as §1
(§2) To test whether the peptides of the invention synergize with various antibiotics, the following method was employed. Fractional Inhibitory Concentration (FIC) was used to determine synergy of peptides combined with antibiotics (e.g., carbenicillin/ciprofloxacin) against Pseudomonas aeruginosa. The following methodology was followed:
(§3) (1) Determination of MIC of cationic peptides (MIC A):
(§4) 100 μl Mueller Hinton broth (MHB) was added per well
(§5) 12.5 μl of 10× test concentration peptide was added per well to get final peptide concentration of e.g., 128, 64, 32, . . . 0.025 μg/ml from row 1 to 11;
(§6) 10 μl of 10^−4 dilution of overnight bacterial culture was added per well.
(§7) (2) Determination of MIC of Carbenicillin/Ciprofloxacin (MIC B):
(§8) 100 μl MHB was added per well;
(§9) 100 μl of 2× test concentration of antibiotic was added in the first well of the row, and doubling dilutions performed across the plate from column 1 to 11;
(§10) (3) Determination of MIC of antibiotics (B) when combined with peptides at concentration A:
(§11) 100 μl Carbenicillin (512 μg/ml) or Ciprofloxacin (8 μg/ml) was added in each well of column 1; doubling dilutions were performed across the plate;
(§12) 100 μl of the peptide was added in all wells of row 1, mixed, and 100 μl withdrawn and added to row 2, etc., creating a checkerboard titration.
(§13) 10 μl of 10^−4 dilution of overnight culture was added per well;
(§14) plates were incubated at 37EC for 18-24 hours. Combination MIC values A and B were taken as the lowest concentration of drug that reduced bacterial growth by more than 50% in any given column.
(§15) (4) FIC index=FICA+FICB=(A)/MIC A+(B)/MIC B. An FIC index of approximately 0.5 or less indicates synergy; 1.0 reflects additivity; and >1.0 indicates antagonism.

[4] = tested on: β-lactamase derepressed mutant (H547) of P. aeruginosa; assay: microbe, parasite or virus in culture; assay type: cell-based; conditions: P. aeruginosa H547
Procedure: as §1, §2, §3, §4, §5, §6, §7, §8, §9, §10, §11, §12, §13, §14, §15

E. coli [5] = assay: MIC, broth microdilution assay in polypropylene microtiter trays; assay type: cell-based; conditions: average of three separate experiments
Method in brief: (§16)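 Each peptide's inhibitory endpoint is based on optical density: absence of any OD change for the chosen duration defines the minimal inhibitory concentration.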

S. aureus K147 = assay: as above; assay type: cell-based; conditions: average of three separate experiments
Method in brief: as §16

S. aureus = assay: as above; assay type: cell-based; conditions: average of three separate experiments
Method in brief: as §16

S. epidermis = assay: as above; assay type: cell-based; conditions: average of three separate experiments
Method in brief: as §16

P. aeruginosa = assay: as above; assay type: cell-based; conditions: average of three separate experiments
Method in brief: as §16

[6] = Lethal endotoxemia in galactosamine-sensitized mice; assay type: in vivo, CD-1 mice; conditions: peptide 200 μg intraperitoneal within 10 min of 10 μg LPS; 24 hours post injection; 5 mice per group; no peptide 100
Procedure: To confirm this in vivo, endotoxic shock was induced by intraperitoneal injection of 10 μg of E.coli 0111:B4 LPS in phosphate-buffered saline (PBS; pH 7.2) into galactosamine-sensitized 8- to 10- week old female CD-1 mice (5 per group). In experiments involving peptides, 200 μg in 100 μl of sterile water was injected at separate intraperitoneal sites within 10 min of LPS injection. Survival was monitored at 24 hours post injection.

[7] = tested on: Salmonella typhimurium wild type (C587); assay type: cell-based; conditions: Mueller Hinton Broth
Procedure: as §1
(§17) These peptides varied in activity (Table 11), however, the C-terminally capped pleurocidin especially and its N-terminally capped lysine derivative had much better activities against a variety of bacteria including Vibrio anguillarum (Va), Aeromonas salmonicida (As), Staphylococcus epidermidis (C621), Salmonella typhimurium wild type (C587) and phoP phoQ mutant (C610), and Pseudomonas aeruginosa wild type (K799) and outer membrane barrier altered (Z61). The antimicrobial peptide CEME, a fusion peptide made from portions of an insect defensin ceropin A and the bee venom peptide melittin (Piers and Hancock, Mol. Microbiol., 12:951-8, 1994), as well as the known antibiotics polymyxin B and gentamicin were used as controls. Replacing the pleurocidin N-terminus with the dermaseptin N-terminus had no effect. Replacing pleurocidin N-terminus with the ceratoxin N-terminus reduced activity. […] Amidating the C-terminus improved antimicrobial activity. Replacing the pleurocidin C-terminus with the misgurin C-terminus had no effect.
(§18) Bacteria included Vibrio anguillarum (Va), Aeromonas salmonicida (As), Staphylococcus epidermidis (C621), Salmonella typhimurium wild type (C587) and phoP phoQ mutant (C6 10), and Pseudomonas aeruginosa wild type (K799) and outer membrane barrier altered (Z61).

Vibrio anguillarum (Va) = assay type: cell-based; conditions: Mueller Hinton Broth
Procedure: as §1, §17, §18

[8] = tested on: Salmonella typhimurium phoP phoQ mutant (C610); assay type: cell-based; conditions: Mueller Hinton Broth
Procedure: as §1, §17, §18

[9] = tested on: Pseudomonas aeruginosa wild type (K799); assay type: cell-based; conditions: Mueller Hinton Broth
Procedure: as §1, §17, §18

[10] = tested on: Aeromonas salmonicida (As); assay type: cell-based; conditions: Mueller Hinton Broth
Procedure: as §1, §17, §18

[11] = tested on: Pseudomonas aeruginosa outer membrane barrier altered (Z61); assay type: cell-based; conditions: Mueller Hinton Broth
Procedure: as §1, §17, §18

[12] = tested on: Staphylococcus epidermidis (C621); assay type: cell-based; conditions: Mueller Hinton Broth
Procedure: as §1, §17, §18

V. anguillarum = assay: Protection of coho salmon, peptide delivered constantly by intraperitoneal mini-osmotic pump; assay type: in vivo, juvenile coho salmon; conditions: P-CN osmotic pump, 19 fish; for Accumulated Mortalities: 30 days, saline pump control 75%, bacteria alone 67%
Procedure: Constant delivery of peptide P-CN using intraperitoneal mini-osmotic pumps was carried out. Briefly, juvenile coho salmon were divided into three treatment groups: A. Bacterial injection alone (12 fish). B. Fish saline osmotic pump and bacterial injection (12 fish). C. A combination of P-CN osmotic pump and bacterial injection (19 fish). The fish were anaesthetized and implanted (peritoneal cavity) with mini-osmotic pumps having a pumping rate of 0.13 µl/hour. Heaters were placed in the tanks to keep the water temperature between 12 and 13° C. Pumps were filled with concentrated P-CN to deliver approximately […] peptide to fish over a 30-day period. Twelve days after pump implantation, the fish received intraperitoneal injections of V. anguillarum ([…]). Mortalities were first noticed on day 3 for the group injected with bacteria alone and on day 5 for the group which received saline osmotic pumps as well as bacterial injections. However, there was no significant difference in mortality between the bacterial injection alone group and the saline osmotic pump group (67% vs. 75%). Mortalities were delayed for the P-CN osmotic pump group. The P-CN osmotic pump group had only one fish die on day 6 over the 30 days experiments with an accumulated mortality of 5%. […] Furthermore, since cationic peptides are not effective in a single treatment and constant administration is necessary, this argues for the potential success of transgenic fish expressing peptide P-CN.
Fish loss from disease is a significant problem in aquaculture worldwide. However, expression of natural cationic peptide genes in fish could increase disease resistance because of continual cellular production of the antimicrobial peptides. In order to choose optimal peptides for transgenic fish, the antimicrobial activities of some cationic peptides were determined by testing minimum inhibitory concentrations (MICs) in vitro. […] The in vivo effect of CEME was examined by intraperitoneal injection of the peptide along with V. anguillarum into juvenile coho salmon. Fish in the bacteria alone control group had 60% mortality, while fish receiving peptide and bacteria injections had 82% mortality. […] Therefore, constant delivery of CEME and Pleurocidin-CN using intraperitoneal mini-osmotic pumps were carried out. Twelve days after pump implantation, the fish received intraperitoneal injections of V. anguillarum. The CEME and pleurocidin-CN pump group had longer survival time and lower mortalities than the control groups (50% Vs. 13%, and 75% Vs. 5%, respectively). Indolicidin transgenic cutthroat trout were made using a construct including an MT promoter, growth hormone signal, pre-region, indolicidin, and terminator. […]

[13] = cationic peptide concentration, combined with lysozyme
[14] = lysozyme concentration, combined with the peptide

Compound: CC[C@H](C)[C@H](NC(=O)CNC(=O)[C@@H](NC(=O)[C@H](CCCCN)NC(=O)[C@H](CCCCN)NC(=O)[C@H](Cc1ccccc1)NC(=O)[C@H](CCCCN)NC(=O)[C@H](Cc1c[nH]c2ccccc12)NC(=O)[C@@H](N)CCCCN)[C@@H](C)CC)C(=O)NCC(=O)N[C@@H](C)C(=O)N[C@H](C(=O)N[C@@H](CC(C)C)C(=O)N[C@@H](CCCCN)C(=O)N[C@H](C(=O)N[C@@H](CC(C)C)C(=O)N[C@@H](CCCCN)C(=O)N[C@H](C(=O)N[C@@H](CC(C)C)C(=O)N[C@H](C(=O)N[C@H](C(=O)NCC(=O)N[C@@H](CC(C)C)C(=O)N1CCC[C@H]1C(=O)N[C@@H](C)C(=O)N[C@@H](CC(C)C)C(=O)N[C@@H](CCCCN)C(=O)N[C@@H](CC(C)C)C(=O)N[C@H](C(=O)N[C@@H](CC(C)C)C(=O)N[C@@H](CCCCN)C(=O)O)[C@@H](C)O)[C@@H](C)O)[C@@H](C)O)C(C)C)C(C)C)C(C)C [CM6]
- FIC for combination of cationic peptide and lysozyme (E. coli [1]): 0.08
- Lowest [CP] showing synergy (E. coli [1]; [13]): 0.326 µg/mL
- Lowest [Lyso] showing synergy (E. coli [1]; [14]): 7.8 µg/mL
- FIC for combination of cationic peptide and lysozyme (P. aeruginosa (H103)): 0.63
- Lowest [CP] showing synergy (P. aeruginosa (H103); [13]): 5.21 µg/mL
- Lowest [Lyso] showing synergy (P. aeruginosa (H103); [14]): 125 µg/mL
- FIC for combination of cationic peptide and lysozyme (Salmonella typhi): 0.50
- Lowest [CP] showing synergy (Salmonella typhi; [13]): 5.21 µg/mL
- Lowest [Lyso] showing synergy (Salmonella typhi; [14]): 7.8 µg/mL
- Survival post bacterial challenge, surviving mice ([2]; double dose (200 μg per mouse i.p. at 30 min and 16 hrs), 16 hr): 14
- Survival post bacterial challenge, surviving mice ([2]; double dose, 24 hr): 14
- Survival post bacterial challenge, surviving mice ([2]; double dose, 41 hr): 11
- Survival post bacterial challenge, surviving mice ([2]; double dose, 48 hr): 9
- Survival post bacterial challenge, surviving mice ([2]; double dose, 64 hr): 6
- Survival (%) post bacterial challenge ([2]; double dose, 64 hr): 42%
- Survival post bacterial challenge, surviving mice ([2]; double dose, 72 hr): 6
- Survival (%) post bacterial challenge ([2]; double dose, 72 hr): 42%
- Survival post bacterial challenge, surviving mice ([2]; double dose, 96 hr): 5
- Survival (%) post bacterial challenge ([2]; double dose, 96 hr): 35%
- Survival post bacterial challenge, surviving mice ([2]; single dose (200 μg per mouse i.p. at 30 min), 16 hr): 15
- Survival post bacterial challenge, surviving mice ([2]; single dose, 24 hr): 15
- Survival post bacterial challenge, surviving mice ([2]; single dose, 41 hr): 13
- Survival post bacterial challenge, surviving mice ([2]; single dose, 48 hr): 11
- Survival post bacterial challenge, surviving mice ([2]; single dose, 64 hr): 9
- Survival (%) post bacterial challenge ([2]; single dose, 64 hr): 60%
- Survival post bacterial challenge, surviving mice ([2]; single dose, 72 hr): 9
- Survival (%) post bacterial challenge ([2]; single dose, 72 hr): 60%
- Survival post bacterial challenge, surviving mice ([2]; single dose, 96 hr): 7
- Survival (%) post bacterial challenge ([2]; single dose, 96 hr): 46%
- (B) MIC of Cipro when combined with peptide ([3]; ciprofloxacin with peptide at concentration (A), Nal B, H744): .125 µg/mL
- MIC A MIC of Peptides ([3]; peptide alone, P. aeruginosa mutant Nal B, H744 (Table 5)): 1 µg/mL
- (A) Peptide doses together with Cipro ([3]; peptide concentration in combination with ciprofloxacin, Nal B, H744): 1 µg/mL
- (B) MIC of Carb when combined with peptide ([4]; Carbenicillin with peptide at concentration (A)): 64 µg/mL
- MIC A MIC of Peptides ([4]; peptide alone): 2 µg/mL
- (A) Peptide doses together with Carb ([4]; peptide concentration in combination with Carbenicillin): 1 µg/mL
- MIC E. coli (E. coli [5]): 2 µg/mL
- MIC S. aureus K147 (S. aureus K147): 32 µg/mL
- MIC S. aureus (S. aureus): 32 µg/mL
- MIC S. epidermis (S. epidermis): 8 µg/mL
- MIC P. aeruginosa (P. aeruginosa): 8 µg/mL
- Mortality (%) [6]: 100%

Compound: GWGSFFKKAAHVGKHVGKAALTHYL-NH2 [P-CN]
- MIC C587 [7]: 4 µg/mL
- MIC Va (Vibrio anguillarum (Va)): 2 µg/mL
- MIC C610 [8]: <0.5 µg/mL
- MIC K799 [9]: 8 µg/mL
- MIC As [10]: 1 µg/mL
- MIC Z61 [11]: 4 µg/mL
- MIC C621 [12]: 4 µg/mL
- Accumulated Mortalities (V. anguillarum): 5%
- Accumulated Mortalities (V. anguillarum; listed as pleurocidin-CN): 5%
- Mortalities (fish died on the day) (V. anguillarum; day 6 after V. anguillarum challenge): 1

Reference: patent publication US6818407B2, “Anti-endotoxic antimicrobial cationic peptides and methods of use therfor” (priority 1998, dated 2004)
